In brackets after ≈: the same amount, converted by molar mass. Read-outs that look alike come from different tables or passages of the source.
Assays:
[1] = tested on: circulating transduced T-cells; assay: Clinical study: transduced donor T-cells with T cell depleted bone marrow, GCV treatment of GvHD; assay type: in vivo, human
Excerpt: Escalating amounts of CD3^+ gene-modified cells were infused with T cell depleted bone marrow. Twelve patients with hematological malignancies received 2×10^5 (n=5), 6×10^5 (n=5) or 20×10^5 (n=2) transduced donor CD3^+ cells/kg with bone marrow from an HLA-identical sibling. Acute toxicity was not observed. […] Three patients developed acute GvHD grade≧II while 1 patient developed chronic GvHD (skin and salivary glands). […] In patients receiving GCV, blood samples for detection of gene-modified cells expressing the wild-type or truncated form of the HSV-Tk gene were harvested prior to GCV treatment and a regular two weeks intervals.

TK-CEM sub-clones = assay: Ganciclovir cytotoxic assay (3H-thymidine incorporation); assay type: cell-based, human; conditions: for IC50: Homo sapiens
Protocol: Cells were incubated for 4 days in the presence of increasing concentration of GCV (range from 0.05 to 12.5 μg/mL). Cell proliferation was measured by the incorporation of ^3H— thymidine into the cell DNA. Results are expressed as percentage of incorporated ^3H-thymidine at each GCV concentration respect to the incorporation obtained in the absence of GCV. (♦) non-transduced CEM cells and (▪) SFCMM 3 transduced TK-CEM sub-clones.
Ganciclovir Cytotoxic Assay
A total of 2×10^4 cells/well were seeded into a 96-well plate in 100 μL of medium. Cells were cultured for 4 days with increasing concentrations (from 0.05 to 12.5 μg/mL) of GCV (Cymevene®, Hoffman-La Roche A G, Germany). Afterwards, 1 μCi/well of tritiated thymidine (methyl ^3H-thymidine, TRA.120, 1.0 MBq/mL, Amersham International, England) was added 18 h. before harvesting the cell DNA in a cell harvester (Wallac, Gaitherburg, Md.). The incorporation of ^3H-thymidine into the DNA was measured in a β-scintillation counter (Wallac 1410, aitherburg, Md.). All GCV concentrations were tested in triplicate esults are expressed as percentage of incorporated ^3H-thymidine at each GCV concentration with respect to the incorporation obtained in the absence of GCV.
The expression of the HSV-TK transgene m the TK-CEM sub-clones was determined by the inhibition in cell proliferation when the cells were cultured at increasing concentrations of GCV.

[2] = tested on: T cell lines and primary T cells; assay: GCV sensitivity of T cell lines and primary T cells transduced with corrected or non-corrected HSV-Tk vectors; assay type: cell-based, human; conditions: inhibition of cell viability
Excerpt: FIG. 18. GCV sensitivity of T cell lines and primary T cells transduced with corrected or non-corrected HSV-Tk vectors. GCV sensitivity of Hut-78 (A) and CEM (B) cell line transduced with corrected SF/Tk/mut (?) or non-corrected vector G1Tk1SVNa (◯) or SF/Tk/wt (Δ) compared to untransduced T-cell lines (▪). The data represents the inhibition of cell viability and are the mean±SD of 8 and 3 different independent experiments, for CEM and Hut-78 cell lines respectively. (C) GCV sensitivity of primary T cells transduced with corrected sc-SFCMM3 (Δ) or non corrected SFCMM3 vectors (?) compared to untransduced T cells (▪).
Primary T cells and the T cell lines, HuT78 (ATCC TIB-161) and CEM (ATCC CRL 2265)] were transduced with G1Tk1SVNa, SF/Tk/wt, SF/Tk/mut, SFCMM3 or scSFCMM3 vectors. HSV-Tk PCR (as described in^7) was performed on transduced target cells. In addition, PCR was performed using primers which selectively amplified the deleted form of the HSV-Tk gene using a 5′ primer, which spans the truncation point [TrTk1: 5′CTCGACCAGG§GCCGTGCT. (§ denoting the junction) and the previously described RTk2 3′ primer^7. Splicing from the transduced cell lines was quantified as described.^7

primary T-cells = assay: GCV sensitivity of G1Tk1SvNa transduced primary T-cells following G418 selection; assay type: cell-based, human; conditions: n=12
Protocol: Transduction of donor T-cells with the G1Tk1SvNa retroviral vector was as previously described (Robinet et al (1998) J. Hematother. 7, 205-215). PBMNC were cultured for 3 days with OKT3 (10 ng, Ortho) and rhIL-2 (500 U/mL, Chiron). Infection with retroviral supernatant for 24 hours was followed by G418 (800 μg/mL, Sigma) selection of transduced cells for 7 days. Dead cells were removed and the viable transduced product was cryopreserved for future use. The transduction of CEM cells with the G1Tk1SvNa vector involved identical infection conditions to those described for the SFCMM3 vector, followed by selection in G418 (800 μg/ml) for 7-14 days.
The transduction efficiency of primary T-cells with G1Tk1SvNa prior to G418 selection, as measured by quantitative PCR for Neo^R, was 8.3±1.4% (n=12). The GCV sensitivity of these cells following G418 selection was 87±1.2% (n=12). The relative cell growth of control and transduced cells from one representative transduction/selection experiment is shown in FIG. 16.

transduced donor cells = conditions: one patient with chronic GvHD; declined from 11.9%; cited from earlier work
[3] = patients, GCV treatment for GvHD, quantitative PCR of the NeoR gene

Nc1nc(O)c2ncn(COC(CO)CO)c2n1 [GCV]
change in circulating transduced T-cells ([1]; patients receiving ganciclovir): significant rapid decrease
reduction of absolute number of circulating transduced T-cells [1, 3]: 76-99.5%
reduction of percentage of circulating transduced T-cells [1, 3]: 85-98%
outcome of chronic GvHD ([1]; the patient with chronic GvHD (skin and salivary glands)): Long-lasting CR
outcome of acute GvHD ([1]; treatment with GCV alone, three patients had acute GvHD grade ≧II): complete remission (CR) in 2 patients
IC50 (TK-CEM sub-clones; 96 h, TK-CEM clones #6 and #10, 4 days with GCV, read-out: concentration of GCV to achieve the 50% inhibition in cell proliferation): 0.25 µg/mL (≈ 0.979 µM)
IC50 (TK-CEM sub-clones; read-out: IC50 inhibition in cell proliferation assessed by the incorporation of 3H-thymidine): 0.1 µg/mL (≈ 0.392 µM)
cell proliferation at increasing concentrations of GCV (TK-CEM sub-clones; TK-CEM clones #1, #2, #4, #5, #7 and #14): parallel to that obtained in the non-transduced cells
complete inhibition in cell proliferation (TK-CEM sub-clones; TK-CEM clones #6 and #10, GCV increased up to 12.5 μg/mL): not completely achieved
GCV sensitivity of cells expressing the mutated HSV-Tk gene compared to populations transduced by wild-type gene [2]: only marginally increased
GCV sensitivity (primary T-cells): 87±1.2%
proportion of transduced donor cells after administration of GCV (transduced donor cells): 2.8%

Reference: patent US20040166559A1, “Vectors for gene therapy” (priority 2001, published 2004)
